Measurements published in patent US10406150B2, “Method for treatment of primary hormone resistant endometrial and breast cancers” (Lipoxen Technologies Limited, priority 2014, dated 2019).

System: secondary PR negative Ishikawa cells
Assay: Model of secondary PR-negative endometrial cancer (progestin-resistant Ishikawa xenograft)
Format: in vivo, mice
Settings: day 7; MPA 250 mg/kg/day i.p. 5 days per week, SC 0.3 mg/kg i.m. each alternate day; mean ± SEM
Experimental: When the surviving cells had grown to a high density but were still less than confluent, cells were subcloned using 0.02% EDTA and 0.25% trypsin prepared in Hanks' balanced salt solution. MPA-containing medium was replaced every 2-3 days. Cells proliferating in 10 μM MPA with the same doubling time as the initial Ishikawa cells proliferating in the medium without MPA, were considered as secondary progestin-resistant Ishikawa cells.
2×10^6 secondary PR negative Ishikawa cells were inoculated into the flanks of MF-1 female nude mice in 100 μl Matrigel.
1) Vehicle control group: vehicle only, −0.9% sodium chloride for injection i.m each alternate day and i.p. for 5 days per week.
2) MPA only control group: medroxyprogesterone acetate (MPA) (250 mg/kg/day) i.p. for 5 days per week.
Tumors were measured with vernier calipers weekly. Tumor volumes (mm^3) were calculated using the modified ellipsoid formula: (length (mm)×width (mm)^2)/2. The ratio (percentage) of “Tumor volume at day n” to “tumor volume at day “0” was calculated for each animal. At the end of the experiments (day 35) animals were euthanized.

CC(=O)O[C@]1(C(C)=O)CC[C@H]2[C@@H]3C[C@H](C)C4=CC(=O)CC[C@]4(C)[C@H]3CC[C@@]21C [MPA, medroxyprogesterone acetate]
Tumor volume at day n/tumor volume at day “0”: 170 ± 19%
